# Measurements as given in patent US7183383B2, “Uses of collagen IV” (The University of Arkansas for Medical Sciences, priority 2002, dated 2007).
# Legend:
# Assay type in all cases: cell-based, rabbit
# [1] = test system: renal proximal tubular cells; assay: Basal oxygen consumption (QO2), a measure of mitochondrial function
# Description: (§1) Confluent monolayers of renal proximal tubular cells (day 6 after seeding) were exposed to 200 μM S-(1,2-dichlorovinyl)-L-cysteine (dissolved in water) for 1.75 hours followed by toxicant removal and addition of fresh culture media. This method produces approximately 50% cell death and loss 24 hours after the exposure. On days 1, 4, and 6 following S-(1,2-dichlorovinyl)-L-cysteine exposure, the ability of the remaining renal proximal tubular cells to regenerate and repair physiological function was monitored as described below. In some experiments, immediately after S-(1,2-dichlorovinyl)-L-cysteine exposure and after daily media change through day 6 after injury, collagen I (0, 5, 15, or 50 μg/ml), collagen IV (0, 5, 15, or 50 μg/ml), laminin (50 μg/ml), or cellular fibronectin (50 μg/ml) was added to the culture media of uninjured and S-(1,2-dichlorovinyl)-L-cysteine-injured renal proximal tubular cells grown in physiological concentrations of AscP. Exogenous collagens I and IV used in this study were triple helical and contained only α1 and α2 chains in conformations similar to those found in the renal basement membrane (3, 25). Laminin was a mixture of biologically active laminin chains found in most epithelial tissues (8, 50) and cellular fibronectin was composed of functional dimers (51).
# On days 1, 4, and 6 after sublethal S-(1,2-dichlorovinyl)L-cysteine injury, renal proximal tubular cells bathed in 37° C. culture medium were gently detached from culture dishes with a rubber policeman and transferred to a 37° C. oxygen consumption (QO2) chamber. Basal renal proximal tubular cells QO2 was measured polarographically using a Clark-type electrode as described previously (36).
# [2] = test system: renal proximal tubular cells; assay: Cell density (monolayer protein content) in DCVC-injured RPTC; conditions: for monolayer protein content in injured RPTC: day 1 or day 6 after DCVC, 50 μg/ml
# Description: Rabbit renal proximal tubules were isolated using the iron oxide perfusion method and grown in 35-mm tissue culture dishes or 48-well cell culture clusters under improved conditions as previously described (35, 36). The cell culture medium was a 1:1 mixture of DMEM/Ham's F-12 (without D-glucose, phenol red, or sodium pyruvate) supplemented with 15 mM HEPES buffer, 2.5 mM L-glutamine, 1 μM pyridoxine HCl, 15 mM sodium bicarbonate, and 6 mM lactate. Hydrocortisone (50 nM), selenium (5 ng/ml), human transferrin (5 μg/ml), bovine insulin (10 nM), and L-ascorbic acid-2-phosphate (50 μM or 500 μM) were added to fresh culture medium immediately prior to daily media change. L-Ascorbic acid-2-phosphate (AscP) was used due to the fact that L-ascorbic acid is unstable in culture media. AscP is stable in culture media for ≧7 days at 37° C. and, after intracellular dephosphorylation, has the same effect on cultured cells as L-ascorbic acid (13).
# as §1
# Measurement of monolayer protein content over time was used to estimate cell density. On days 1, 4, and 6 after sublethal S-(1,2-dichlorovinyl)-L-cysteine injury, renal proximal tubular cell monolayers were washed with PBS and solubilized in Triton buffer (0.05% Triton X-100, 100 mM Tris-Base, 150 mM NaCl, pH 7.5). Samples were sonicated and protein concentrations determined using the method of Lowry (26) or the bicinchoninic acid microassay according to the manufacturer's instructions (Pierce, Rockford, Ill.).
# [3] = test system: Na^+/K^+-ATPase activity in renal proximal tubular cells; assay: Na^+/K^+-ATPase activity (ouabain-sensitive ATPase); conditions: day 6 after DCVC injury; 50 μg/ml
# Description: as §1
# On days 1 and 6 after sublethal S-(1,2-dichlorovinyl)-L-cysteine injury, total ATPase activity was measured using a modification of a previously described procedure (44). Briefly, renal proximal tubular cells cultured in 48-well cell culture clusters were scraped and incubated in dissociation buffer (5 mM HEPES (pH 7.4), 25 mM imidazole, 1% BSA, 0.065% sodium dodecyl sulfate (SDS)) for 10 min. at room temperature and placed on ice. The dissociated renal proximal tubular cells were then diluted 5-fold with additional dissociation buffer minus SDS. Aliquots of dissociated renal proximal tubular cells were combined with fresh ATPase assay buffer (2.54 mM MgCl2, 100 mM NaCl, 10 mM KCl, 5 mM HEPES, 10 U/ml lactate dehydrogenase, 7 U/ml pyruvate kinase, 2.54 mM Na2ATP, 2.54 mM phospho(enol)pyruvate, and 0.5 mM β-NADH). ATPase activity was measured under linear conditions spectrophotometrically as the oxidation of β-NADH to NAD^+ at 37° C. in the absence or presence of ouabain (0.1 mM) at a wavelength of 340 nm. Na^+/K^+-ATPase activity was calculated as total ATPase activity minus ouabain-insensitive ATPase activity.
# Confluent monolayers of renal proximal tubular cells (day 6 after seeding) were exposed to 200 μM S-(1,2-dichlorovinyl)-L-cysteine (dissolved in water) for 1.75 hours followed by toxicant removal and addition of fresh culture media. This method produces approximately 50% cell death and loss 24 hours after the exposure. In some experiments, exogenous collagen IV (50 μg/ml), collagen I (50 μg/ml), or function-stimulating antibodies to collagen-binding integrin subunits α2 or β1 (5 μg/ml) was added daily to the culture media of S-(1,2-dichlorovinyl)-L-cysteine-injured renal proximal tubular cells cultured in the absence of pharmacological concentrations of L-ascorbic acid-2-phosphate. Function-stimulating antibodies to collagen-binding integrin α1 are not commercially available at this time. On days 1 and 6 following S-(1,2-dichlorovinyl)-L-cysteine exposure, active Na^+ transport or Na^+/K^+-ATPase activity, and collagen-binding integrin expression and/or localization in the remaining sublethally injured renal proximal tubular cells was determined as described below.
# Total ATPase activity was measured as described above. […]
# [4] = day 1 after DCVC injury, in presence of exogenous protein
# [5] = day 6 after DCVC injury, 5, 15, 50 μg/ml
# [6] = uninjured RPTC, days 1 or 6, exogenous protein
substance,measurement,setting,value
"collagen I: Rat tail collagen I; triple helical, containing only α1 and α2 chains",decrease in basal QO2,[1]; [4],approximately 50%
same,repair of basal QO2,[1]; [5],neither increased cell density nor repair of basal QO2
same,basal QO2 in untreated RPTC,[1]; [6],no effect
same,decrease in monolayer cell density,[2]; [4],approximately 50%
same,monolayer protein content in injured RPTC,[2],no change
same,cell density,[2]; [5],neither increased cell density nor repair of basal QO2
same,monolayer cell density in untreated RPTC,[2]; [6],no effect
same,Na^+/K^+-ATPase activity in injured RPTC,[3],remained inhibited
fibronectin,monolayer protein content in injured RPTC,[2],no change
same,Na^+/K^+-ATPase activity in injured RPTC,[3],remained inhibited
laminin,monolayer protein content in injured RPTC,[2],no change
same,Na^+/K^+-ATPase activity in injured RPTC,[3],remained inhibited
